Reference: patent US20260274794A1, “COMPOUNDS, COMPOSITIONS, AND METHOD OF INHIBITING TAU PROTEIN AND ALPHASYNUCLEIN AGGREGATION” (Purdue Research Foundation, priority 2023, published 2026)

Tests used:
Type in all cases: biochemical
[1] = biological target: T1, α-synuclein (α-syn) (Homo sapiens, UniProt P37840); experiment: Thioflavin T (ThT) fluorescence assay of α-syn fibril formation; conditions: compound 100 μM; ThT fluorescence intensity at plateau phase, control = 100%
T1 construct: purchased rPeptide, LLC (Watkinsville, GA)
Protocol: (§1) ThT fluorescence is routinely established assay to follow the kinetics of α-syn fibril formation with different drug candidate treatments. Compounds were first tested at a final of concentration of 100 μM and α-syn and 2N4R tau were prepared at 2 μM and 6 μM, respectively. Compounds with highest anti-fibrillary activity were tested at 3.125, 6.25, 12.5, 25, 50, and 100 μM to obtain dose-response curves.
For the α-syn ThT assay, ThT was used at a final concentration of 20 μM. α-Syn was dissolved in 20 mM Tris-HCl (pH 7.4) supplemented with 100 mM NaCl to a stock solution of 280 μM (1 mg/250 μL) prior to resuspension in ThT buffer to obtain a final concentration of 2 μM. Compounds and ThT were first added to the wells. The kinetics of fibril formation begin when the α-syn was solubilized in the ThT buffer (10 mM PBS buffer (pH 7.4), supplemented with 0.5 mM SDS and 300 mM NaCl) and added to a non-treated black 96 well microplate with a transparent flat bottom. Each well was filled with a maximum volume of 150 μL buffer with one 3 mm borosilicate bead. The background fluorescence signal consisted of ThT in buffer and 0.25% DMSO without α-syn. The excitation and emission wavelengths were set at 440 and 485 nm, respectively, with a Synergy HT multi-mode microplate reader (BioTek, Winooski, VT). Measurements were taken at 37° C. every 20 minutes over 50 hours of shaking prior to reading the plate. Samples were measured in three replicates and the experiments were repeated three times using different α-syn stock solutions. For each time point, the background fluorescence signal was subtracted. Arbitrary units of fluorescence were calculated from the mean values normalized against the maximum value in each completed assay. Arbitrarily, the maximum value (100%) for the fluorescence intensity was established for α-syn.
Compounds were tested at 100 μM with α-syn at 6 μM, resulting in a molar ratio of approximately 1:16 (protein:compound). The plateau phase of sigmoidal kinetics is of particular interest because it is the phase in which mature fibrils form and where aggregation and disaggregation are at equilibrium with each other; therefore, the fluorescence intensity between multiple compounds at the plateau phase can be compared to identify the compounds with the most promising anti-aggregation activity (Table 1, column α-syn ThT %). […] Compound 17 was the best representative of the 5-aminoindole series and moved to the tier-2 assays, even though the resulting ThT percentage of fluorescence intensity was 10% higher than the cut off. These compounds were then tested on tau 2N4R ThT fluorescence assays.

[2] = biological target: T2, tau isoform 2N4R (Homo sapiens, UniProt P10636); experiment: ThT fluorescence assay of tau isoform 2N4R fibril formation; conditions: compound 100 μM, tau 2N4R 6 μM
T2 construct: made in house; host or cells: E. coli BL21 (DE3), vector pRK172
T2 sequence (P10636 1-441 isoform P10636-8): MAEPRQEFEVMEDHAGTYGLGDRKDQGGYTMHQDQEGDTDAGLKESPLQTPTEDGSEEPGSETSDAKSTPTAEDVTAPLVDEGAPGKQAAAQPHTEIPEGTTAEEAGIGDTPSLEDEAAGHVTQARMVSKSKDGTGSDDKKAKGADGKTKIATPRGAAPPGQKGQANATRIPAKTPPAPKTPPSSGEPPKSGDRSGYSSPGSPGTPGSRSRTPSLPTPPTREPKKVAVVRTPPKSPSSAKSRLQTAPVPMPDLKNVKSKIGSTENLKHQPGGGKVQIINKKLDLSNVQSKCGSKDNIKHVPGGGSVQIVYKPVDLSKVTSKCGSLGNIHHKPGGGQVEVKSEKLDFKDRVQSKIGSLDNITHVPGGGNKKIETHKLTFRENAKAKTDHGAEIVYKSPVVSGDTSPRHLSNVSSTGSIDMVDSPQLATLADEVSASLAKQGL
Protocol: as §1
Concerning the non-phosphorylated tau (isoform 2N4R) kinetics of fibril formation, ThT was performed with the tau protein solution was diluted to a final concentration of 6 μM in PBS (pH 7.4) supplemented with 1.5 μM heparin, 20 μM ThT, 2.5 mM DTT, and 100 μM compound. Aliquots of the diluted protein solution (100 μL each) were pipetted into the wells of a 96-well plate, and a Teflon ball was added to each well. The plate was incubated at 37° C. with constant shaking at 1,000 rpm in a Tecan Stark plate reader. ThT fluorescence was measured every 15 min with excitation and emission wavelengths of 440 nm and 480 nm, and the data were plotted using GraphPad Prism.
Various structural analogs were first tested at a final concentration of 100 μM in the presence of tau 2N4R at 6 μM. Compounds 2, 4-8, and 17 were pre-selected with α-syn ThT assay prior to evaluation on the tau isoform 2N4R.

[3] = biological target: T2, tau isoform 2N4R; experiment: PICUP assay of tau isoform 2N4R oligomerization; conditions: compound 50 μM
Protocol: To force the oligomerization by cross-linking, α-syn (from Rpeptide, LLC) and tau isoform 2N4R were diluted in 10 mM phosphate buffer (pH 7.4) to reach a final concentration of 10 μM [27]. Different compounds were added to the protein solution at a final concentration of 50 μM, resulting in a molar ratio of 1:5. To confirm the gradual effect of the compounds on the inhibition of α-syn oligomerization, compounds were tested at final concentration of 3.125, 6.25, 12.5, 25, and 50 μM. The controls consisted of samples without light exposition, without Ru(bpy), and without compound (i.e., 0.125% DMSO). The cross-linking reaction was initiated by the addition of 2 μL of Ru(bpy) (300 μM final concentration) and 2 μL ammonium persulfate (6 mM final concentration). Samples were irradiated immediately. Light exposition was of 1 second duration for ca-syn and 3 second duration for tau isoform 2N4R, with a 53 W (120 V) incandescent lamp installed in a homemade dark-box. Each tube contained a final volume of 20 μL. After irradiation, 8.3 μL. of Lammeli loading buffer containing 15% β-mercaptoethanol was immediately added to the solution, followed by incubation at 95° C. for 10 minutes. The cross-linked samples were separated on a 16% SDS-Page gel and visualized by Coomassie blue staining.
One end point used to verify the propensity of misfolded protein in the drug discovery field is the inhibition of oligomer formation. The photo-induced cross-linking of unmodified proteins (PICUP) assay was used to investigate α-syn (60 μM) and tau isoform 2N4R (6 μM) oligomerization in the presence of eight amide compounds (2, 4, 5, 6, 7, 8, 13, and 17 at 50 μM, i.e., ~molar ratio 1:8 for tau). After being subjected to short light exposure, α-syn and tau were cross-linked and Coomassie-stained resolved as a higher molecular weight compared to control (0.125% DMSO). […] Compound 13 was used as a negative control for the α-syn PICUP.
PICUP assays were performed with different concentrations (50 μM, 25 μM, 12.5 μM, 6.25 μM, 3.125 μM; control=0.125% DMSO) for each lead compound.

SMILES | remaining activity at 100 µM [1] | effect on tau isoform 2N4R fibril formation (ThT) [2] | α-Syn ThT% [1] | tau isoform 2N4R oligomerization (PICUP crosslinking) [3]
N#Cc1ccc(C(=O)Nc2cccc3[nH]ccc23)cc1 [Compound 7, 4-cyano-N-(1H-indol-4-yl)benzamide] | ≤ 30% | good inhibitory effect |  | 
O=C(Nc1cccc2[nH]ccc12)c1ccc(Cl)cc1 [Compound 4, 4-chloro-N-(1H-indol-4-yl)benzamide] | ≤ 30% | good inhibitory effect |  | 
O=C(Nc1cccc2[nH]ccc12)c1ccccc1Cl [Compound 5, 2-chloro-N-(1H-indol-4-yl)benzamide] | ≤ 30% | good inhibitory effect |  | 
COc1cccc(C(=O)Nc2cccc3[nH]ccc23)c1 [Compound 3] | 43% |  |  | 
O=C(Nc1cccc2[nH]ccc12)c1ccc(C(F)(F)F)cc1 [Compound 6, N-(1H-indol-4-yl)-4-(rifluoromethyl)benzamide] | ≤ 30% | weaker anti-fibrilization effect |  | strongest oligomer band
O=C(Nc1ccc2[nH]ccc2c1)c1cccs1 [Compound 9, N-(1H-indol-5-yl)thiophene-2-carboxamide] | 40.5 ± 2.3% |  |  | 
O=C(Nc1ccc2[nH]ccc2c1)c1ccccc1 [Compound 10, N-(1H-indol-5-yl)benzamide] | 102 ± 13.3% |  |  | 
O=C(Nc1cccc2[nH]ccc12)c1cccs1 [Compound 1] | 64% |  |  | 

More lines, now with the values ahead:

remaining activity at 100 µM [1] | effect on tau isoform 2N4R fibril formation (ThT) [2] | α-Syn ThT% [1] | tau isoform 2N4R oligomerization (PICUP crosslinking) [3] | SMILES
40% |  |  |  | Nc1cccc(C(=O)Nc2ccc3[nH]ccc3c2)c1 [Compound 17, 3-amino-(1H-indol-5-yl)benzamide]
69.4% |  | 69.4 ± 6.70% |  | O=C(Nc1ccc2c(c1)Cc1ccccc1-2)c1ccc(Cl)cc1 [Compound 18, 4-chloro-N-(9H-fluoren-2-yl)benzamide]
48.5 ± 1.7% |  |  |  | O=C(Nc1ccc2[nH]ccc2c1)c1ccc(F)cc1 [Compound 16, 4-fluoro-N-(1H-indol-5-yl)benzamide]
67.5 ± 16.3% |  |  |  | O=C(Nc1ccc2[nH]ccc2c1)c1ccc(Cl)cc1 [Compound 12, 4-chloro-N-(1H-indol-5-yl)benzamide]
62.7 ± 4.1% |  |  |  | N#Cc1ccc(C(=O)Nc2ccc3[nH]ccc3c2)cc1 [Compound 15, 4-cyano-N-(1H-indol-5-yl)benzamide]
48.6 ± 2.6% |  |  |  | COc1cccc(C(=O)Nc2ccc3[nH]ccc3c2)c1 [Compound 11, N-(1H-indol-5-yl)-3-methoxybenzamide]
